Results on 1 compound are retold here after patent publication US20250034586A1, “METHOD FOR EDITING BANANA GENES” (Tropic Biosciences UK Limited, priority 2021, published 2025).

Assay [1] deals with banana embryos or leaf material. As to the kind of experiment: Comparison of selection using ALS inhibitor, G418 or hygromycin (genotyping of embryos or leaf material). It is filed as cell-based. The following applies: embryos. An excerpt: In every case, regenerated material was transformed with constructs containing T-DNA that would generate resistance in positive transformants.

The subject of a further assay is ACO1, Ma01_g11540. The experiment in a line: Trait co-editing in selected embryos (PBE #3). It is filed as cell-based, banana. The settings on record: G418 selection. Here is the method: (§1) We transformed ECS as described previously in Example 6, using the new co-editing plasmids detailed in Table 11 above. Embryos were regenerated as detailed previously, either on media without selection, with 25 mg/L G418, 25 μg/L CSF or 50 μg/L CSF. Initial genotyping of all plasmids tested:
(§2) • All with CsVMV-rAPOBEC1 CBE (rAPOBEC+nCas9 (D10A) PBE from Zong et al. 2017*) and nosP-NptII • pMol_0925 (sgGFP-pNOS::Kan::tOCS-pCsVMV::nCas9PBE1::tg7-Dummy-pTaU6::sg1GFP_58-pTaU6::sg2GFP_59) • pMol_0934 (sgGFP, sgALS1-pNOS::Kan::tOCS-pCsVMV::nCas9PBE1::tg7-taU6::MaALS1sg2_2021-pTaU6::sg1GFP_58-pTaU6::sg2GFP_59) • pMol_0935 (sgGFP, sgALS2-pNOS::Kan::tOCS-pCsVMV::nCas9PBE1::tg7-taU6::MaALS2sg2_2023-pTaU6::sg1GFP_58-pTaU6::sg2GFP_59) • pMol_0926 (sgPPO2, sgALS1-pNOS::Kan::tOCS-pCsVMV::nCas9PBE1::tg7-taU6::MaALS1sg2_2021-pTaU6::sg1PPO2_2961-pTaU6::sg2PPO2_2962-pTaU6::sg3PPO2_2963) • pMol_0927 (sgPPO2, sgALS1-pNOS::Kan::tOCS-pCsVMV::nCas9PBE1::tg7-taU6::MaALS1sg2_2021-pTaU6::sg3PPO2_2963-pTaU6::sg4PPO2_2964) • pMol_0928 (sgACO1, sgALS1-pNOS::Kan::tOCS-pCsVMV::nCas9PBE1::tg7-taU6::MaALS1sg2_2021-pTaU6::sg1ACO1_2965-pTaU6::sg2ACO1_2966-pTaU6::sg3ACO1_2967) • pMol_0929 (sgPPO2, sgALS2-pNOS::Kan::tOCS-pCsVMV::nCas9PBE1::tg7-taU6::MaALS2sg2_2023-pTaU6::sg1PPO2_2961-pTaU6::sg2PPO2_2962-pTaU6::sg3PPO2_2963) • pMol_0930 (sgPPO2, sgALS2-pNOS::Kan::tOCS-pCsVMV::nCas9PBE1::tg7-taU6::MaALS2sg2_2023-pTaU6::sg3PPO2_2963-pTaU6::sg4PPO2_2964) • pMol_0931 (sgACO1, sgALS2-pNOS::Kan::tOCS-pCsVMV::nCas9PBE1::tg7-taU6::MaALS2sg2_2023-pTaU6::sg1ACO1_2965-pTaU6::sg2ACO1_2966-pTaU6::sg3ACO1_2967) ECS were left to ‘recover’ after transformation for 1 week in CS+cefo 300 mg/L. We regenerated embryos in 4 different conditions: • 1. No selection • 2. Stable G418 selection (in EDM only 2-3 months) from PBE #3 only (PBE #1/2 plasmids only have mCherry, not NptII) • 3. 25 μg/L chlorsulfuron (in EDM only 2-3 months) • 4. 50 μg/L chlorsulfuron (in EDM only 2-3 months)
(§3) gDNA from embryos and plantlets was extracted and qPCR was used to test for the presence of integrated tDNA in the plant genome. Three independent qPCRs were run on each sample with different sets of primers (listed below) spanning the tDNA, ranging from the left to right border. An additional qPCR was run on an endogenous banana gene (actin) for normalisation of Ct values. All qPCRs were run on the LightCycler® 96 System (Roche) using PowerUp™ SYBR® Green Master Mix (Thermo Fisher Scientific™).
(§4) For edit validation, amplicons for each target gene (als1, als2, ppo2, aco1) were made using Q5® High-Fidelity 2× Master Mix (New England Biolabs, NEB) using reaction settings listed below. PCR products were purified using Monarch® PCR & DNA Cleanup Kit (NEB) according to manufacturer's specifications. The amplicons were after validated by Sanger sequencing.

Another assay relates to PPO2, Ma07_g03540. As to the kind of experiment: Trait co-editing in selected embryos (PBE #3). The following applies: G418 selection. It is filed as cell-based, banana. The method, then:
as §1, §2, §3, §4

Structures are written as SMILES.

With `CN[C@@H]1[C@@H](O)[C@@H](O[C@@H]2[C@@H](O)[C@H](O[C@H]3O[C@H]([C@@H](C)O)[C@@H](O)[C@H](O)[C@H]3N)[C@@H](N)C[C@H]2N)OC[C@]1(C)O` [Plasmid G418], in assay [1] (stable selection), the Editing frequency is 17/28 = 60.7% and the Transgenic frequency is on record as 18/28 = 64.3%. Moreover, in assay [1] (transient selection), the Editing frequency is 35/867 = 4.0%, the Non-transgenic edited was 0/774 = 0% and the Transgenic frequency is 95/943 = 10.1%. In the assay on ACO1, Ma01_g11540, the “Percentage edited ACO1 embryos” value turned out to be 33.33. In the assay with ACO1, Ma01_g11540 (6 embryos tested), the “ACO1 edited embryos total” value was 2. Further, the “Percentage edited PPO2 embryos” value with PPO2, Ma07_g03540 is given as 31.25. Also, the “PPO2 edited embryos total” value with PPO2, Ma07_g03540 (16 embryos tested) came out at 5.
